# Data as given in patent publication US20230097157A1, “Bicyclic Pyridin-2-one and pyrimidin-4-one Derivatives Useful As a Factor XIa Inhibitors” (Janssen Pharmaceutica NV, priority 2021, published 2023).
# Like-named read-outs stand apart in the source and are kept apart here.
# Experiments:
# Factor XIa = Factor XIa (Homo sapiens, UniProt P03951); experiment: Factor XIa inhibition assay (FLINT) utilizing a fluorophore-quencher pair peptide substrate 5Fam-[…]-K5Tamra; assay type: biochemical; settings: kinetic (KIN) reads, read-out: FXIa KIN Inh IC50
# Outline: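 FXIa was preincubated with compound for 30 min at room temperature in Tris pH 7.5 buffer containing CaCl2, BSA and CHAPS, then reacted with 15 μM quenched 5Fam/Tamra peptide substrate. Fluorescence (485/520 nm) was read kinetically every 5 min for 30 min.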
# human plasma kallikrein = human plasma kallikrein (Homo sapiens, UniProt P03952); experiment: Kallikrein inhibition assay (FLINT) utilizing a quenched AMC peptide substrate Z-Gly-Pro-Arg-AMC; assay type: biochemical; settings: kinetic (KIN) reads, read-out: Kallikrein KIN Inh IC50
# Outline: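 Human plasma kallikrein (2 nM final) pre-incubated 30 min with compound (11-point 3-fold series, top 1 μM, 2% DMSO), then 50 μM Z-Gly-Pro-Arg-AMC added. Buffer 50 mM Tris pH 7.5, 100 mM NaCl, 5 mM CaCl2, BSA, CHAPS. AMC fluorescence (340/440 nm) read kinetically over 30 min at room temperature, IC50 by 4-parameter logistic fit.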
# Sequence of Factor XIa (P03951 388-625 limits assumed): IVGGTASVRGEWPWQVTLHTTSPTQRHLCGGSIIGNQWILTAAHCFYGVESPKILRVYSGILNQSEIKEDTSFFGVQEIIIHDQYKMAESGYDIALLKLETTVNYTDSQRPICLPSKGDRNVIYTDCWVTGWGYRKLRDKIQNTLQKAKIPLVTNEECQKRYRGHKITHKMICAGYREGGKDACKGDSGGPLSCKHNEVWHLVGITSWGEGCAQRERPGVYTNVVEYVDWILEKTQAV
# Sequence of Factor XIa (P03951 19-387 partner limits assumed): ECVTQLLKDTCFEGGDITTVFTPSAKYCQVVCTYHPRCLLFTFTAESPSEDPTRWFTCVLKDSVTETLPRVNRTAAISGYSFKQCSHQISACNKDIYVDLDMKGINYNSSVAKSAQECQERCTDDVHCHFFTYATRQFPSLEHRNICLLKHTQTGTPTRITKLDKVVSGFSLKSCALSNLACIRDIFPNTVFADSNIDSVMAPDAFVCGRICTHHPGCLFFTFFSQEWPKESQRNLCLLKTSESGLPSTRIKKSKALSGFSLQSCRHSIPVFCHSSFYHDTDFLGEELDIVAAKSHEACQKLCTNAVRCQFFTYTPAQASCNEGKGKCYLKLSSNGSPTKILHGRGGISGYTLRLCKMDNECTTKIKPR
# Sequence of human plasma kallikrein (P03952 391-638 limits assumed): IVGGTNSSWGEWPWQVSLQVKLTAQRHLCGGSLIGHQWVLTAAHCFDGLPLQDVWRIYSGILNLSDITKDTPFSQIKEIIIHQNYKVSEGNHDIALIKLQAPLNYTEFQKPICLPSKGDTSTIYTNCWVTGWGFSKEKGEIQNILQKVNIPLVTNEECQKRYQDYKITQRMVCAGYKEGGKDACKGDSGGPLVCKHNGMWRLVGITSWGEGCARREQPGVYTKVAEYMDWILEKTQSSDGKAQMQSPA
# Sequence of human plasma kallikrein (P03952 20-390 partner limits assumed): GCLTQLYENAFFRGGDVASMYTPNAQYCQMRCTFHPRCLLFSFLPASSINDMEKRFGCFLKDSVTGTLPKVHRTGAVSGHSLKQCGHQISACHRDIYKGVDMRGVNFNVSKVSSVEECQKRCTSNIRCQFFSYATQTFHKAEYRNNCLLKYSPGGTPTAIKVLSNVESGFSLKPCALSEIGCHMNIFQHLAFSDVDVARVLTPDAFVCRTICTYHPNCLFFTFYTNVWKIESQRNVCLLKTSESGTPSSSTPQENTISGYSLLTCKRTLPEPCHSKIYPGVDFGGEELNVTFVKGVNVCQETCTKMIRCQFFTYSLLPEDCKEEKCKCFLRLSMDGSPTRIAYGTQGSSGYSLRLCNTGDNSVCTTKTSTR
Structure (SMILES),IC50 (Factor XIa; values in nM),IC50 (human plasma kallikrein; values in nM),IC50 (Factor XIa; unit μM),IC50 (human plasma kallikrein; unit μM)
"C[C@@H]1C[C@H](c2ncc(-c3ccnc(F)c3)[nH]2)n2c1cc(-c1c(-n3cnnn3)ccc(Cl)c1F)cc2=O (stereo in doubt) [Example 43, (1*R,3*R)-7-(3-Chloro-2-fluoro-6-(1H-tetrazol-1-yl)phenyl)-3-(5-(2-fluoropyridin-4-yl)-1H-imidazol-2-yl)-1-methyl-2,3-dihydroindolizin-5(1H)-one]",12.4 nM,108 nM,,
"Nc1ccc(-c2cnc([C@H]3CC4(CC4)c4cc(-c5c(-n6cnnn6)ccc(Cl)c5F)cc(=O)n43)[nH]2)c(F)n1 [Example 24, (R)-3′-(5-(6-Amino-2-fluoropyridin-3-yl)-1H-imidazol-2-yl)-7′-(3-chloro-2-fluoro-6-(1H-tetrazol-1-yl)phenyl)-2′,3′-dihydro-5′H-spiro[cyclopropane-1,1′-indolizin]-5′-one]",,,1100 nM,> 10000 nM
"C[C@H]1C[C@@H](c2ncc(-c3ccc4c(c3)CC(=O)N4)[nH]2)n2c1nc(-c1c(-n3cnnn3)ccc(Cl)c1F)cc2=O (stereo in doubt) [Example 113, (6*S,8*S)-2-(3-Chloro-2-fluoro-6-(1H-tetrazol-1-yl)phenyl)-8-methyl-6-(5-(2-oxoindolin-5-yl)-1H-imidazol-2-yl)-7,8-dihydropyrrolo[1,2-a]pyrimidin-4(6H)-one]",0.7 nM,16.8 nM,,
"C[C@@H]1C[C@H](c2ncc(-c3ccn4nccc4c3)[nH]2)n2c1cc(-c1c(-n3cnnn3)ccc(Cl)c1F)cc2=O (stereo in doubt) [Example 52, (1*R,3*R)-7-(3-Chloro-2-fluoro-6-(1H-tetrazol-1-yl)phenyl)-1-methyl-3-(5-(pyrazolo[1,5-a]pyridin-5-yl)-1H-imidazol-2-yl)-2,3-dihydroindolizin-5(1H)-one]",,,7900 nM,> 10000 nM
"C[C@@H]1C[C@H](c2ncc(-c3ccc4nccn4c3)[nH]2)n2c1cc(-c1c(-n3cnnn3)ccc(Cl)c1F)cc2=O (stereo in doubt) [Example 49, (1R*,3R*)-7-(3-Chloro-2-fluoro-6-(1H-tetrazol-1-yl)phenyl)-3-(5-(imidazo[1,2-a]pyridin-6-yl)-1H-imidazol-2-yl)-1-methyl-2,3-dihydroindolizin-5(1H)-one]",24.2 nM,44.3 nM,,
"C[C@@H]1C[C@@H](c2ncc(-c3ccc4c(=O)cc[nH]c4c3)[nH]2)n2c1nc(-c1c(-n3cnnn3)ccc(Cl)c1F)cc2=O (relative stereo) [Example 101, 7-(2-((6S,8R)-2-(3-Chloro-2-fluoro-6-(1H-tetrazol-1-yl)phenyl)-8-methyl-4-oxo-4,6,7,8-tetrahydropyrrolo[1,2-a]pyrimidin-6-yl)-1H-imidazol-5-yl)quinolin-4(1H)-one]",321 nM,,,1300 nM
"C[C@H]1C[C@@H](c2nc(-c3ncc(N)nc3Cl)c[nH]2)n2c1nc(-c1c(-n3cnnn3)ccc(Cl)c1F)cc2=O [Example 93, (6S,8S)-6-(4-(5-Amino-3-chloropyrazin-2-yl)-1H-imidazol-2-yl)-2-(3-chloro-2-fluoro-6-(1H-tetrazol-1-yl)phenyl)-8-methyl-7,8-dihydropyrrolo[1,2-a]pyrimidin-4(6H)-one]",0.5 nM,20.8 nM,,
"C[C@H]1C[C@@H](c2ncc(-c3ccc(NC(=O)C4CC4)nc3)[nH]2)n2c1nc(-c1c(-n3cnnn3)ccc(Cl)c1F)cc2=O (stereo in doubt) [Example 123, N-(5-(2-((6*S,8*S)-2-(3-Chloro-2-fluoro-6-(1H-tetrazol-1-yl)phenyl)-8-methyl-4-oxo-4,6,7,8-tetrahydropyrrolo[1,2-a]pyrimidin-6-yl)-1H-imidazol-5-yl)pyridin-2-yl)cyclopropanecarboxamide]",3.1 nM,17.5 nM,,
"C[C@H]1C[C@@H](c2ncc(-c3c(C#N)cnn3C)[nH]2)n2c1cc(-c1c(-n3cnnn3)ccc(Cl)c1F)cc2=O [Example 14, 5-(2-((1S,3S)-7-(3-Chloro-2-fluoro-6-(1H-tetrazol-1-yl)phenyl)-1-methyl-5-oxo-1,2,3,5-tetrahydroindolizin-3-yl)-1H-imidazol-5-yl)-1-methyl-1H-pyrazole-4-carbonitrile]",189 nM,,,4700 nM
"Cc1cc(-c2cnc([C@H]3C[C@H](C)c4cc(-c5c(-n6cnnn6)ccc(Cl)c5F)cc(=O)n43)[nH]2)ccn1 (stereo in doubt) [Example 42, (1*S,3*R)-7-(3-Chloro-2-fluoro-6-(1H-tetrazol-1-yl)phenyl)-1-methyl-3-(5-(2-methylpyridin-4-yl)-1H-imidazol-2-yl)-2,3-dihydroindolizin-5(1H)-one]",3.3 nM,33 nM,,
"C[C@H]1C[C@@H](c2ncc(-c3ccnc(C#N)c3)[nH]2)n2c1cc(-c1c(-n3cnnn3)ccc(Cl)c1F)cc2=O (relative stereo) [Example 32, 4-(2-((1S,3S)-7-(3-Chloro-2-fluoro-6-(1H-tetrazol-1-yl)phenyl)-1-methyl-5-oxo-1,2,3,5-tetrahydroindolizin-3-yl)-1_H-imidazol-5-yl)picolinonitrile]",11.2 nM,90.7 nM,,
"C[C@H]1C[C@@H](c2ncc(-c3ccnc(CO)c3F)[nH]2)n2c1cc(-c1c(-n3cnnn3)ccc(Cl)c1F)cc2=O (relative stereo) [Example 2, (1 S*,3S*)-7-(3-Chloro-2-fluoro-6-(1H-tetrazol-1-yl)phenyl)-3-(5-(3-fluoro-2-(hydroxymethyl)pyridin-4-yl)-1H-imidazol-2-yl)-1-methyl-2,3-dihydroindolizin-5(1H)-one]",22 nM,170 nM,,
"COC(=O)Nc1ccc(-c2cnc([C@@H]3C[C@@H](OC)c4cc(-c5c(-n6cnnn6)ccc(Cl)c5F)cc(=O)n43)[nH]2)cc1 [Example 152, Methyl (4-(2-((1R,3S)-7-(3-chloro-2-fluoro-6-(1H-tetrazol-1-yl)phenyl)-1-methoxy-5-oxo-1,2,3,5-tetrahydroindolizin-3-yl)-1H-imidazol-5-yl)phenyl)carbamate]",0.3 nM,1.5 nM,,

# Further lines, results first:
IC50 (Factor XIa; values in nM),IC50 (human plasma kallikrein; values in nM),IC50 (Factor XIa; unit μM),IC50 (human plasma kallikrein; unit μM),Structure (SMILES)
1.5 nM,27.7 nM,,,"C[C@H]1C[C@H](c2ncc(-c3ccnc(N)c3F)[nH]2)n2c1nc(-c1c(-n3cnnn3)ccc(Cl)c1F)cc2=O (relative stereo) [Example 87, (6R*,8S*)-6-(5-(2-amino-3-fluoropyridin-4-yl)-1H-imidazol-2-yl)-2-(3-chloro-2-fluoro-6-(1H-tetrazol-1-yl)phenyl)-8-methyl-7,8-dihydropyrrolo[1,2-a]pyrimidin-4(6H)-one]"
,,> 10000 nM,> 10000 nM,"C[C@@H]1C[C@H](c2ncc(-c3cnns3)[nH]2)n2c1nc(-c1c(-n3cnnn3)ccc(Cl)c1F)cc2=O (relative stereo) [Example 105, (6*R,8*R)-6-(5-(1,2,3-Thiadiazol-5-yl)-1H-imidazol-2-yl)-2-(3-chloro-2-fluoro-6-(1H-tetrazol-1-yl)phenyl)-8-methyl-7,8-dihydropyrrolo[1,2-a]pyrimidin-4(6H)-one]"
,,> 10000 nM,> 10000 nM,"Cc1nc(N)c(F)cc1-c1cnc([C@@H]2C[C@H](C)c3nc(-c4c(-n5cnnn5)ccc(Cl)c4F)cc(=O)n32)[nH]1 (stereo in doubt) [Example 130, (6*S,8*S)-6-(5-(6-Amino-5-fluoro-2-methylpyridin-3-yl)-1H-imidazol-2-yl)-2-(3-chloro-2-fluoro-6-(1H-tetrazol-1-yl)phenyl)-8-methyl-7,8-dihydropyrrolo[1,2-a]pyrimidin-4(6H)-one]"
0.5 nM,13.5 nM,,,C[C@H]1C[C@H](c2ncc(-c3ccc(N)nc3Cl)[nH]2)n2c1nc(-c1c(-n3cnnn3)ccc(Cl)c1F)cc2=O [Example 141]
933 nM,,,6400 nM,"C[C@H]1C[C@H](c2ncc(-c3cnns3)[nH]2)n2c1nc(-c1c(-n3cnnn3)ccc(Cl)c1F)cc2=O (relative stereo) [Example 106, (6*R,8*S)-6-(5-(1,2,3-Thiadiazol-5-yl)-1H-imidazol-2-yl)-2-(3-chloro-2-fluoro-6-(1H-tetrazol-1-yl)phenyl)-8-methyl-7,8-dihydropyrrolo[1,2-a]pyrimidin-4(6H)-one]"
,,> 10000 nM,> 10000 nM,"C[C@@H]1C[C@@H](c2ncc(-c3ccnn3C)[nH]2)n2c1nc(-c1c(-n3cnnn3)ccc(Cl)c1F)cc2=O (relative stereo) [Example 145, (6S*,8R*)-2-(3-Chloro-2-fluoro-6-(1H-tetrazol-1-yl)phenyl)-8-methyl-6-(5-(1-methyl-1H-pyrazol-5-yl)-1H-imidazol-2-yl)-7,8-dihydropyrrolo[1,2-a]pyrimidin-4(6H)-one]"
168 nM,,,1600 nM,"Cc1nc(N)c(F)cc1-c1cnc([C@H]2C[C@H](C)c3nc(-c4c(-n5cnnn5)ccc(Cl)c4F)cc(=O)n32)[nH]1 (relative stereo) [Example 129, (6*R,8*S)-6-(5-(6-Amino-5-fluoro-2-methylpyridin-3-yl)-1H-imidazol-2-yl)-2-(3-chloro-2-fluoro-6-(1H-tetrazol-1-yl)phenyl)-8-methyl-7,8-dihydropyrrolo[1,2-a]pyrimidin-4(6H)-one]"
,,2700 nM,> 10000 nM,"C[C@@H]1C[C@H](c2ncc(-c3cnnn3C)[nH]2)n2c1nc(-c1c(-n3cnnn3)ccc(Cl)c1F)cc2=O (relative stereo) [Example 135, (6*R,8*R)-2-(3-Chloro-2-fluoro-6-(1H-tetrazol-1-yl)phenyl)-8-methyl-6-(5-(1-methyl-1H-1,2,3-triazol-5-yl)-1H-imidazol-2-yl)-7,8-dihydropyrrolo[1,2-a]pyrimidin-4(6H)-one]"
